# According to patent US11761045B2, “Splice variants associated with neomorphic SF3B1 mutants” (Eisai R&D Management Co., Ltd., priority 2015, dated 2023):
# Assays:
# [1] = test system: Nalm-6 SF3B1^K700E xenograft; test: Antitumor activity in subcutaneous Nalm-6 SF3B1^K700E xenograft model; format: in vivo, CB17-SCID mice
# Procedure: SF3B1 modulator E7107 was tested for antitumor activity in vivo by determining the effect of E7107 in a subcutaneous model of Nalm-6 SF3B1^K700E. […] After this dosing, the animals were monitored until they reached either of the following endpoints: 1) excessive tumor volume measured three times a week (tumor volume calculated by using the ellipsoid formula: […]), or 2) development of any health problem such as paralysis or excessive body weight loss. Partial regression (PR) and complete regression (CR) are defined as 3 consecutive tumor measurements <50% and <30% of starting volume respectively.
# Nalm-6 SF3B1^K700K cells = test: Splice variant levels in Nalm-6 isogenic cells by NanoString assay; format: cell-based, human; details: 15 nM
# Procedure: (§1) A NanoString® assay was developed to quantify aberrant and canonical splice variants and was validated using the same cell panel. For the NanoString® assay, 750 ng of purified total RNA was used as template for the nCounter® (NanoString Technologies®) expression assay using a custom panel of NanoString® probes. The sample preparation was set up as recommended (NanoString® Technologies protocol no. C-0003-02) for an overnight hybridization at 65° C. The following day, samples were processed through the automated nCounter® Analysis System Prep Station using the high sensitivity protocol (NanoString® Technologies protocol no. MAN-00029-05) followed by processing through the nCounter® Analysis System Digital Analyzer (protocol no. MAN-00021-01) using 1150 FOVs for detection. Data was downloaded and analyzed for quality control metrics and normalization using the nSolver™ Analysis Software (NanoString Technologies®). The data was first normalized for lane-to-lane variation using the positive assay controls provided by the manufacturer (NanoString® positive controls A-F [containing in vitro transcribed RNA transcripts at concentrations of 128 fM, 32 fM, 8 fM, 2 fM, 0.5 fM, and 0.125 fM, each pre-mixed with NanoString® Reporter CodeSet probes])). Any samples with normalization factors <0.3 and >3 were not considered for further analysis. This was followed by content normalization using the geo-mean of GAPDH, EEF1A1 and RPLP0. All samples were within the recommended 0.1-10 normalization factor range. Each normalized value was then checked to ensure that it was at least two standard deviations higher than the average of background signal recorded for that lane. Any value below that was considered below detection limit. These normalized values were taken for further bioinformatics and statistical analysis.
# (§2) To investigate the broader activity of E7107 on normal and aberrant splicing, RNA from Nalm-6 isogenic cells treated for two and six hours at 15 nM was analyzed by NanoString®. […] Normal and aberrant splicing in the isogenic cell lines was also analyzed by RNA-Seq following treatment with one of additional compounds having formulas 1 or 2. […] For the RNA-Seq analysis, cells were washed with PBS after treatment with E7107 or other test compound, and RNA was isolated using PureLink (Life Technology) as reported in the manufacturer's manual. cDNA library preparation, sequencing and raw read filtering was performed as described in Ren, S. et al. “RNA-Seq analysis of prostate cancer in the Chinese population identifies recurrent gene fusions, cancer-associated long noncoding RNAs and aberrant alternative splicings.” Cell Res 22, 806-821, doi:10.1038/cr.2012.30 (2012).
# Nalm-6 SF3B1^K700E cells = test: as above; format: cell-based, human; details: 15 nM
# Procedure: as §1, §2
# [2] = test system: Nalm-6 SF3B1^K700K xenograft tumors; test: Splicing modulation and compound concentration in xenograft tumors after single IV dose; format: in vivo, CB17-SCID mice; details: single IV dose 5 mg/kg
# Procedure: (§3) In addition, the ability of E7107 to modulate splicing was tested in mice bearing human tumor xenografts. Nalm-6 isogenic xenograft mice were generated by subcutaneously implanting 10×10^6 Nalm-6 isogenic cells into the flank of CB17-SCID mice, and tumors from these mice were collected at different timepoints after a single intravenous (IV) dose of E7107 (5 mg/kg) and analyzed to determine compound concentrations and splicing regulation. RNA was isolated from the tumors using RiboPure™ RNA purification kit (Ambion®) and used for NanoString® assay or qPCR. The RNA was retrotranscribed according to the instructions of the SuperScript® VILO™ cDNA synthesis kit (Invitrogen™) and 0.04 μl of cDNA was used for qPCR. qPCR for pre-mRNA EIF4A1 and mature mRNA […] and pharmacokinetic evaluation were performed as described in Eskens, F. A. et al. “Phase I pharmacokinetic and pharmacodynamic study of the first-in-class spliceosome inhibitor E7107 in patients with advanced solid tumors.” Clin Cancer Res 19, 6296-6304, doi:10.1158/1078-0432.CCR-13-0485 (2013). The primers and probes used for ZDHHC16 were the following: FW 5′-[…] (SEQ ID NO: 1194), RW 5′ […] (SEQ ID NO: 1195) and probe 5′ FAM […] (SEQ ID NO: 1196). The primers and probes used for COASY were the following: FW 5′-CGGTGGTGCAAGTGGAA (SEQ ID NO: 1197), RW 5′-[…] (SEQ ID NO: 1198) and probe 5′-FAM-[…] (SEQ ID NO: 1199).
# [3] = test system: Nalm-6 SF3B1^K700E xenograft tumors; test: as above; format: in vivo, CB17-SCID mice; details: single IV dose 5 mg/kg
# Procedure: as §3
smiles,measurement,setting,value
CC[C@H](O)[C@@H](C)[C@H]1O[C@@H]1C[C@@](C)(O)/C=C/C=C(\C)[C@H]1OC(=O)C[C@H](O)CC[C@@](C)(O)[C@@H](OC(=O)N2CCN(C3CCCCCC3)CC2)/C=C/[C@@H]1C [Compound E7107],complete regression (CR),"[1]; 1.25 mg/kg IV QDx5, n=10",all animals (n=10) reached complete regression (CR)
same,"complete regressions (CRs), animals","[1]; 2.5 mg/kg IV QDx5, by day 9",10/10
same,complete regression (CR),[1]; 5 mg/kg IV QDx5,all Nalm-6 SF3B1^K700E xenograft animals reached CR as early as 9 days post treatment
same,mean survival time,[1]; 5 mg/kg IV QDx5,over 250 days
same,tolerability of dose levels,"[1]; 1.25, 2.5 and 5 mg/kg IV QDx5",well tolerated
same,inhibition of splicing (all isoforms quantified),Nalm-6 SF3B1^K700K cells; six hours,clear inhibition
same,"inhibition of splicing (gene, WT-associated and MUT-associated isoform expression)",Nalm-6 SF3B1^K700K cells; two hours,partial inhibition of splicing
same,inhibition of splicing (all isoforms quantified),Nalm-6 SF3B1^K700E cells; six hours,clear inhibition
same,"inhibition of splicing (gene, WT-associated and MUT-associated isoform expression)",Nalm-6 SF3B1^K700E cells; two hours,partial inhibition of splicing
same,"canonical splicing in tumor (EIF4A1 pre-mRNA, SLC25A19 mature mRNA), qPCR",[2],modulated canonical splicing
same,"canonical and aberrant splice mRNA isoforms in tumor, NanoString",[2]; timepoints after dose,downregulated by E7107 as early as one hour following administration
same,"abnormal splicing of COASY and ZDHHC16 in tumor, qPCR",[3],downregulated abnormal splicing
same,"canonical splicing in tumor (EIF4A1 pre-mRNA, SLC25A19 mature mRNA), qPCR",[3],modulated canonical splicing
same,"canonical and aberrant splice mRNA isoforms in tumor, NanoString",[3]; timepoints after dose,downregulated by E7107 as early as one hour following administration
